The supplement of paper PMC10307832

Columns and labels:
Assay in all cases: relative viability (nuclei count vs DMSO), 5 days (fraction); higher = more cells survive
[1] = compound: C1CSC2=C(C(=O)N1)SC3=C2C=C(C=C3)O [kb NB 142-70] + COc1cc2c(Oc3ccc(NC(=O)C4(C(=O)Nc5ccc(F)cc5)CC4)cc3F)ccnc2cc1OCCCN1CCOCC1 [Foretinib] (partner 0.25 µM)
Method in brief: (§1)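 Medians of duplicate plates are given as relative viability. That measure is the nuclei count in treated wells divided by the count in vehicle wells. Counts were taken on 4× images of lung cancer cell lines in 1536-well plates, 5 days after pin-tool dosing the day after seeding with one drug alone or a fixed anchor-drug dose plus five library-drug doses (not always all listed) in √10 steps.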

[2] = compound: NCC(=O)Nc1ccc(-n2nc(C(F)(F)F)cc2-c2ccc3c(ccc4ccccc43)c2)cc1 + CC(=O)c1c(C)c2cnc(Nc3ccc(N4CCNCC4)cn3)nc2n(C2CCCC2)c1=O [Palbociclib] (partner 0.5 µM)
Method in brief: as §1

[3] = compound: NCC(=O)Nc1ccc(-n2nc(C(F)(F)F)cc2-c2ccc3c(ccc4ccccc43)c2)cc1 + CC1(C)CCC(c2ccc(Cl)cc2)=C(CN2CCN(c3ccc(C(=O)NS(=O)(=O)c4ccc(N[C@H](CCN5CCOCC5)CSc5ccccc5)c(S(=O)(=O)C(F)(F)F)c4)cc3)CC2)C1 [Navitoclax] (partner 0.5 µM)
Method in brief: as §1

[4] = compound: NCC(=O)Nc1ccc(-n2nc(C(F)(F)F)cc2-c2ccc3c(ccc4ccccc43)c2)cc1 + Nc1ncn([C@H]2C[C@H](O)[C@@H](CO)O2)c(=O)n1 [Decitabine] (partner 2 µM)
Method in brief: as §1

In the case of NCI-H1734, the relative viability ([1]; first compound 0.1 µM) is reported as 0.873, the relative viability ([1]; first compound 1 µM) is reported as 0.738 and the relative viability ([1]; first compound 3.162 µM) is reported as 0.456. It also gave a relative viability ([2]; first compound 0.02 µM) of 0.361, a relative viability ([2]; first compound 0.06325 µM) of 0.343 and a relative viability ([2]; first compound 0.2 µM) of 0.345. The relative viability ([2]; first compound 0.6325 µM) was 0.333, the relative viability ([2]; first compound 2 µM) was 0.356 and the relative viability ([3]; first compound 0.02 µM) was 0.889. The relative viability ([3]; first compound 0.06325 µM) was 0.868, the relative viability ([3]; first compound 0.2 µM) was 0.91 and the relative viability ([3]; first compound 0.6325 µM) was 0.787. The relative viability ([3]; first compound 2 µM) was 0.787, the relative viability ([4]; first compound 0.02 µM) was 0.545 and the relative viability ([4]; first compound 0.06325 µM) was 0.497. For the same cell line, the relative viability ([4]; first compound 0.2 µM) was 0.488, the relative viability ([4]; first compound 0.6325 µM) was 0.485 and the relative viability ([4]; first compound 2 µM) was 0.534.
In the case of NCI-H1755, the relative viability ([1]; first compound 0.1 µM) is reported as 0.928, the relative viability ([1]; first compound 1 µM) is reported as 0.867 and the relative viability ([1]; first compound 3.162 µM) is reported as 0.944. It also gave a relative viability ([2]; first compound 0.02 µM) of 0.48, a relative viability ([2]; first compound 0.06325 µM) of 0.444 and a relative viability ([2]; first compound 0.2 µM) of 0.448. For the same cell line, the relative viability ([2]; first compound 0.6325 µM) was 0.471, the relative viability ([2]; first compound 2 µM) was 0.434 and the relative viability ([3]; first compound 0.02 µM) was 1.03. It also gave a relative viability ([3]; first compound 0.06325 µM) of 1.04, a relative viability ([3]; first compound 0.2 µM) of 1.03 and a relative viability ([3]; first compound 0.6325 µM) of 1.03. It also gave a relative viability ([3]; first compound 2 µM) of 0.991, a relative viability ([4]; first compound 0.02 µM) of 0.692 and a relative viability ([4]; first compound 0.06325 µM) of 0.739. For the same cell line, the relative viability ([4]; first compound 0.2 µM) was 0.686, the relative viability ([4]; first compound 0.6325 µM) was 0.701 and the relative viability ([4]; first compound 2 µM) was 0.727.
Cell Line NCI-H1793 has a relative viability ([1]; first compound 0.1 µM) of 0.603, a relative viability ([1]; first compound 1 µM) of 0.742 and a relative viability ([1]; first compound 3.162 µM) of 0.813. It also gave a relative viability ([2]; first compound 0.02 µM) of 0.333, a relative viability ([2]; first compound 0.06325 µM) of 0.295 and a relative viability ([2]; first compound 0.2 µM) of 0.337. The relative viability ([2]; first compound 0.6325 µM) was 0.339, the relative viability ([2]; first compound 2 µM) was 0.363 and the relative viability ([3]; first compound 0.02 µM) was 0.529. The relative viability ([3]; first compound 0.06325 µM) was 0.446, the relative viability ([3]; first compound 0.2 µM) was 0.395 and the relative viability ([3]; first compound 0.6325 µM) was 0.411. The relative viability ([3]; first compound 2 µM) was 0.416, the relative viability ([4]; first compound 0.02 µM) was 0.518 and the relative viability ([4]; first compound 0.06325 µM) was 0.459. It also gave a relative viability ([4]; first compound 0.2 µM) of 0.549, a relative viability ([4]; first compound 0.6325 µM) of 0.494 and a relative viability ([4]; first compound 2 µM) of 0.487.
Work on NCI-H1915 yielded a relative viability ([1]; first compound 0.1 µM) of 1.1, a relative viability ([1]; first compound 1 µM) of 1.12 and a relative viability ([1]; first compound 3.162 µM) of 0.82. For the same cell line, the relative viability ([2]; first compound 0.02 µM) was 0.535, the relative viability ([2]; first compound 0.06325 µM) was 0.509 and the relative viability ([2]; first compound 0.2 µM) was 0.517. It also gave a relative viability ([2]; first compound 0.6325 µM) of 0.507, a relative viability ([2]; first compound 2 µM) of 0.541 and a relative viability ([3]; first compound 0.02 µM) of 0.771. The relative viability ([3]; first compound 0.06325 µM) was 0.804, the relative viability ([3]; first compound 0.2 µM) was 0.812 and the relative viability ([3]; first compound 0.6325 µM) was 0.767. The relative viability ([3]; first compound 2 µM) was 0.803, the relative viability ([4]; first compound 0.02 µM) was 0.272 and the relative viability ([4]; first compound 0.06325 µM) was 0.275. It also gave a relative viability ([4]; first compound 0.2 µM) of 0.276, a relative viability ([4]; first compound 0.6325 µM) of 0.262 and a relative viability ([4]; first compound 2 µM) of 0.256.
NCI-H1944 gave a relative viability ([1]; first compound 0.1 µM) of 0.883, a relative viability ([1]; first compound 1 µM) of 0.934 and a relative viability ([1]; first compound 3.162 µM) of 0.998. It also gave a relative viability ([2]; first compound 0.02 µM) of 0.333, a relative viability ([2]; first compound 0.06325 µM) of 0.353 and a relative viability ([2]; first compound 0.2 µM) of 0.35. The relative viability ([2]; first compound 0.6325 µM) was 0.32, the relative viability ([2]; first compound 2 µM) was 0.355 and the relative viability ([3]; first compound 0.02 µM) was 1.06. For the same cell line, the relative viability ([3]; first compound 0.06325 µM) was 1.08, the relative viability ([3]; first compound 0.2 µM) was 1.05 and the relative viability ([3]; first compound 0.6325 µM) was 1.04. It also gave a relative viability ([3]; first compound 2 µM) of 1.07, a relative viability ([4]; first compound 0.02 µM) of 0.492 and a relative viability ([4]; first compound 0.06325 µM) of 0.43. The relative viability ([4]; first compound 0.2 µM) was 0.436, the relative viability ([4]; first compound 0.6325 µM) was 0.392 and the relative viability ([4]; first compound 2 µM) was 0.44.
NCI-H1975 gave a relative viability ([1]; first compound 0.1 µM) of 0.92, a relative viability ([1]; first compound 1 µM) of 0.928 and a relative viability ([1]; first compound 3.162 µM) of 0.566. For the same cell line, the relative viability ([2]; first compound 0.02 µM) was 0.657, the relative viability ([2]; first compound 0.06325 µM) was 0.61 and the relative viability ([2]; first compound 0.2 µM) was 0.615. For the same cell line, the relative viability ([2]; first compound 0.6325 µM) was 0.485, the relative viability ([2]; first compound 2 µM) was 0.586 and the relative viability ([3]; first compound 0.02 µM) was 1.04. It also gave a relative viability ([3]; first compound 0.06325 µM) of 1.1, a relative viability ([3]; first compound 0.2 µM) of 1.2 and a relative viability ([3]; first compound 0.6325 µM) of 1.11. For the same cell line, the relative viability ([3]; first compound 2 µM) was 0.997, the relative viability ([4]; first compound 0.02 µM) was 0.407 and the relative viability ([4]; first compound 0.06325 µM) was 0.39. The relative viability ([4]; first compound 0.2 µM) was 0.43, the relative viability ([4]; first compound 0.6325 µM) was 0.404 and the relative viability ([4]; first compound 2 µM) was 0.464.
For NCI-H1993, the relative viability ([1]; first compound 0.1 µM) was 0.739, the relative viability ([1]; first compound 1 µM) was 0.762 and the relative viability ([1]; first compound 3.162 µM) was 0.744. It also gave a relative viability ([2]; first compound 0.02 µM) of 0.658, a relative viability ([2]; first compound 0.06325 µM) of 0.599 and a relative viability ([2]; first compound 0.2 µM) of 0.808. It also gave a relative viability ([2]; first compound 0.6325 µM) of 0.696, a relative viability ([2]; first compound 2 µM) of 0.706 and a relative viability ([3]; first compound 0.02 µM) of 0.945. It also gave a relative viability ([3]; first compound 0.06325 µM) of 1.06, a relative viability ([3]; first compound 0.2 µM) of 1.02 and a relative viability ([3]; first compound 0.6325 µM) of 1. For the same cell line, the relative viability ([3]; first compound 2 µM) was 0.956, the relative viability ([4]; first compound 0.02 µM) was 0.558 and the relative viability ([4]; first compound 0.06325 µM) was 0.634. For the same cell line, the relative viability ([4]; first compound 0.2 µM) was 0.663, the relative viability ([4]; first compound 0.6325 µM) was 0.611 and the relative viability ([4]; first compound 2 µM) was 0.64.
